The values that follow come from patent US5643604A, “Parenteral dosage form” (Aplicaciones Farmaceuticas S.A. De C.V., priority 1990, dated 1997).

Series [1] in a line: Comparative UV spectrophotometric analysis before and after formation of microspheres. Format: physicochemical. The conditions noted are these: starting materials (crystals) vs microspheres obtained by spray-freezing; ethanol for 17-beta-estradiol and cholesterol, 0.1N HCl for the others. An excerpt:
(§1) It is necessary to check that no chemical damage of the substances occurs during the spray-freezing process, which could modify their therapeutic properties. The starting materials (crystals) and the microspheres obtained by spray-freezing are compared by UV and IR spectrophotometry. UV spectras shall always be superimposable and IR spectras shall correspond. If differences in infrared spectras appear, it shall be checked if they are due to a polymorphism phenomenon, by means of an HPLC setup with diode-array detection. Differential thermal analysis is also used, not only to check the melting points, but also to determine if endothermic or exothermic transitions occur, due either to structure modifications or to a polymorphism, which may influence the microsphere information process, or due to heat-induced chemical reactions.
Equipment used in ultraviolet spectrography: Hewlett Packard model 8452A with photodiode arrangement and quartz cell with a beam of 0.1 cm.

Series [2] in a line: Comparative infrared spectrophotometry (FT-IR, with HPLC diode-array) before and after formation of microspheres. The conditions noted are these: after the formation of microspheres; potassium bromide dispersion. Format: physicochemical.
Description: as §1
Equipment used in infrared spectrophotometry: Nicolet 205 FT-IR. Dispersion medium: potassium bromide. Chromatography: HPLC device with photo diode-array detector, model Waters 990 and Nec powermate 2 workstation.

Series [3] is described as follows: Differential thermal analysis (DSC). The following applies: Shimadzu DSC 50 calorimeter.
Description: as §1
Thermal analysis: Shimadzu DSC 50 calorimeter and CR4A workstation.

For series [4] the following is noted: general statement, no test described; cited from earlier work.

`C[C@]12CC[C@@H]3c4ccc(O)cc4CC[C@H]3[C@@H]1CC[C@@H]2O` [17-beta-estradiol]: the “chemical modification by UV spectrophotometry” value in series [1] is listed as “no trace of modification”. Further, the “chemical modification by infrared spectrophotometry” value in series [2] is “no modification”. Besides, the “degradation on differential thermograms” value in series [3] is listed as “no degradation”. With `CCCC[N+]1(C)C2CC(OC(=O)C(CO)c3ccccc3)CC1C1OC12` (centres unmarked) [butylhioscine bromide], in series [1], the “chemical modification by UV spectrophotometry” value is listed as “no trace of modification”. Moreover, the “chemical modification by infrared spectrophotometry” value in series [2] is “produces chemical modifications”. For the molecule `Cn1c(=O)c2c(ncn2C)n(C)c1=O` [caffeine], the “chemical modification by UV spectrophotometry” value in series [1] is on record as “no trace of modification”. For the same molecule, the “degradation on differential thermograms” value in series [3] is reported as “no degradation”.

For `CC(C)CCC[C@@H](C)[C@H]1CC[C@H]2[C@@H]3CC=C4C[C@@H](O)CC[C@]4(C)[C@H]3CC[C@]12C` [cholesterol], the “chemical modification by UV spectrophotometry” value in series [1] is listed as “no trace of modification”. For the same molecule, the “chemical modification by infrared spectrophotometry” value in series [2] is on record as “no modification”. As for `CN1C(=O)CN=C(c2ccccc2)c2cc(Cl)ccc21` [diazepam], the “degradation on differential thermograms” value in series [3] is “no degradation”. Consider `CCN(CC)CCNC(=O)c1cc(Cl)c(N)cc1OC` [methoclopramide], for which the solubility in water result in series [4] was “freely soluble in water”.
